Experimental data published in the SangsterLogP compilation.

Columns and labels:
[1] = method code SF-AS, from Holmes, L.; Lough, E. (1976). Effect of Intramolecular Hydrogen Bonding on Partition Coefficients [Technical Note]. Defence Research Establishment Suffield.
[2] = method code SF, from Dai, J-Y.; Han, S.; Wang, L. (2000). Prediction of partition properties of substituted benzaldehydes using different structural parameters. Zhongguo Huanjing Kexue (China Environmental Science), …
[3] = method code SF, from DOI: 10.1034/j.1399-3011.2003.00037.x, PMID: 12492901; settings: pH 2.0
[4] = from Bazaco, J.; Coca, C. (1989). Relation between the partition coefficient (Log Pow) and capacity factor (Log k') derived from reversed-phase HPLC of a series of benzaldehyde derivatives. Ciencia e …
[5] = method code SF-AS, from DOI: 10.1016/0006-2952(93)90433-w, PMID: 8494536; settings: pH 7.4
[6] = not given; remark: listed apart in the source
[7] = method code SF-HPLC, from DOI: 10.1016/s0223-5234(02)01360-0, PMID: 12008054; settings: pH 7.4
[8] = method code SF-AS, from DOI: 10.1111/j.2042-7158.1979.tb13606.x, PMID: 41067; settings: pH 1.2
[9] = method code SF, from DOI: 10.1111/j.2042-7158.1971.tb08772.x, PMID: 4401532; settings: pH 7.2
[10] = method code SF-RC, from Audran, M.; Chanal, J.; Berge, G.; Marignan, R. (1983). Binding-structure correlation of bovine serum albumin in a series of cresotinamides. International Journal of Pharmaceutics, 15(3)273-284.; settings: pH 1.0
[11] = method code SF, from DOI: 10.1021/jm00378a018, PMID: 6389865; settings: pH 7.0
[12] = method code SF-HPLC, from DOI: 10.1016/0378-5173(82)90005-9; settings: pH 3.0
[13] = method code SF-AS, from DOI: 10.1248/cpb.35.377
[14] = method code SF-AS, from DOI: 10.1021/jm00254a011, PMID: 4845376
[15] = method code SF-GLC, from DOI: 10.1021/je00020a050
[16] = method code SF-HPLC, from DOI: 10.1016/0378-5173(85)90010-9; settings: pH 4.0
[17] = method code SF-AS, from DOI: 10.1111/j.1440-1681.1976.tb00621.x, PMID: 10116
[18] = method code SF, from DOI: 10.1016/0360-3016(86)90226-9, PMID: 3744928; settings: pH 7.4
[19] = not given; remark: listed apart in the source
[20] = from Dutta, H.; Mehta, N.; SenGupta, M.; Pal, D.; Sengupta, C.; De, A. (1988). Dioxanide furoate: studies on its interaction with blood phospholipid in relation to partition coefficients of related drugs. …
[21] = method code SF-AS, from DOI: 10.1021/j150653a049
[22] = method code SF-GLC, from DOI: 10.1080/03086648508073361
[23] = method code G-HPLC, from DOI: 10.6028/nbs.ir.81-2406
[24] = method code SF-GLC, from Hermens, J., & De Bruijn, J. (1987). A QSAR study for fish toxicity data of organophosphorus compounds. QSAR in Drug Design and Toxicology, 10, 343-345.
[25] = method code SF, from DOI: 10.1016/0360-3016(92)90876-j, PMID: 1735696; settings: pH 7.4
[26] = not given; remark: listed apart in the source
[27] = not given; remark: listed apart in the source
[28] = method code SF-AS, from DOI: 10.1002/1521-3838(200111)20:4<291::aid-qsar291>3.0.co;2-q

Compound CCCCCCCCCCCCN1CC(C(=O)O)CC1=O (configuration not stated) has a logP of 2.6.
Compound CC(=O)c1ccc(O)cc1 has a logP [1] of 1.45.
CC(C)Oc1ccc(C=O)cc1 gave a logP [2] of 2.3.
In the case of CC(=O)N[C@@H](Cc1c[nH]c2ccccc12)C(=O)O, the logD [3] is reported as 0.57.
Compound CCOc1cc(C=O)ccc1O has a logP [4] of 1.58.
Work on COC(=O)C1CC(=O)N(C)C1 (configuration not stated) yielded a logP of -0.74.
With O=C(c1ccccc1)c1ccccc1O the logP [1] was 3.52.
Work on NC(=O)c1cccc2ccccc12 yielded a logD [5] of 1.88.
In the case of O=C(O)Cc1ccc(Oc2cccc(Br)c2)cc1, the logP [6] is reported as 4.1.
Compound CS(=O)(=O)c1ccccc1 has a logD [5] of 0.55.
In the case of CNC(=NC#N)NCCSCc1nc[nH]c1C, the logD [7] is reported as 0.35.
For CCCCOc1ccc(C(=O)O)cc1, the logD [8] was 3.57.
For CC(=O)Nc1ccc(Cl)cc1, the logD [9] was 1.87.
In the case of Cc1cc(Br)cc(C(N)=O)c1O, the logD [10] is reported as 2.76.
For COc1ccc(CCC(=O)O)cc1, the logD [8] was 1.9.
Compound COc1cccc(C=O)c1O has a logP [1] of 1.33.
For CCOc1ccc(C=O)cc1, the logP [2] was 2.09.
Compound CC(=O)Nc1nc(N2CCN(C)CC2)c(Cl)nc1[N+](=O)[O-] has a logD [11] of 0.5.
Compound O=C1NC(=O)C2(CCCCCCC2)C(=O)N1 has a logD [12] of 1.79.
In the case of OCc1ccccc1Cl, the logP [13] is reported as 1.77.
With COc1ccc(N(C)C(C)=O)cc1 the logD [9] was 0.72.
In the case of CC(C)NC(=O)C=Cc1ncc([N+](=O)[O-])s1, the logP [14] is reported as 1.76.
For COc1c(Cl)c(Cl)c(Cl)c(Cl)c1OC, the logP [15] was 4.86.
O=C1NC(=O)C2(CCCCCC2)C(=O)N1 showed a logD [12] of 1.36.
For CCCCNC(=O)n1cc(F)c(=O)[nH]c1=O, the logD [16] was 1.44.
O=Cc1ccc(F)cc1 gave a logP [4] of 1.54.
CC(C)C(Cl)C(=O)NC(N)=O (configuration not stated) showed a logP [17] of 1.
With O=C(Cn1cnc([N+](=O)[O-])n1)N1CCOCC1 the logD [18] was -0.96.
In the case of COc1ccc(Cl)c(Cl)c1Cl, the logP [15] is reported as 4.03.
Compound CC(C(=O)O)c1ccc(C(=O)c2cccs2)cc1 (configuration not stated) has a logP [19] of 2.83.
With O=C(O)c1ccc(I)cc1 the logP [19] was 3.13.
CN(C(=O)C(Cl)Cl)c1ccc(OC(=O)c2ccco2)cc1 showed a logP [20] of 2.24.
In the case of OCc1cc(Cl)ccc1O, the logP [21] is reported as 1.44.
O=C(O)Cc1cc(Cl)c(Cl)cc1Cl gave a logP [6] of 3.6.
Work on CC(=O)Nc1nc(NCC(O)CO)c(Cl)nc1[N+](=O)[O-] (configuration not stated) yielded a logD [11] of 0.
Work on CCN(CC)P(=O)(N(CC)CC)N1CCCC1 yielded a logP [22] of 2.39.
Work on COc1cc(Cl)c(Cl)c(Cl)c1OC yielded a logP [15] of 4.01.
In the case of O=C1NC(=O)C2(CCC2)C(=O)N1, the logD [12] is reported as -0.27.
NS(=O)(=O)c1cccc2ccccc12 showed a logD [5] of 1.55.
For O=Cc1ccc(Br)cc1, the logP [2] was 2.75.
CC(C)C(Br)C(=O)NC(N)=O (configuration not stated) showed a logP [17] of 1.14.
O=C(Nc1ccccc1)n1cc(F)c(=O)[nH]c1=O gave a logD [16] of 1.5.
For CCc1cc(CC)c(OC)c(C(=O)O)c1OC, the logP [19] was 2.98.
With CN(C(=O)C(Cl)Cl)c1ccc(OC(=O)c2ccccc2)cc1 the logP [20] was 2.56.
Fc1ccc(CCl)cc1 showed a logP [23] of 2.73.
CCCCNC(=O)Cn1cnc([N+](=O)[O-])n1 gave a logD [18] of 0.89.
Work on COP(=S)(OC)Oc1ccc(SC)cc1 yielded a logP [24] of 3.64.
Work on Cc1c(C)c(C)c(C)c(C)c1C yielded a logP [23] of 4.61.
O=C(CCCn1ccnc1[N+](=O)[O-])NO gave a logD [25] of -1.11.
In the case of CC(C)C[C@H]1C(=O)N2CCC[C@H]2[C@]2(O)O[C@](NC(=O)[C@@H]3C=C4c5cccc6[nH]c(Br)c(c56)C[C@H]4N(C)C3)(C(C)C)C(=O)N12, the logD [7] is reported as 4.61.
Compound OCc1cc(Cl)cc(Cl)c1O has a logP [21] of 2.3.
With CCCCC(C)O (configuration not stated) the logP [26] was 1.76.
Work on CCC(Br)(CC)C(=O)NC(N)=O yielded a logP [17] of 1.54.
Compound O=[N+]([O-])c1ccc(N2CCNC2=S)o1 has a logP [14] of 0.98.
With Cc1cc(C)c(O)c(C)c1 the logP [23] was 2.73.
Nc1ccccc1C(=O)O showed a logP [13] of 1.13.
For CC(C)(C)C1CCC(O)CC1 (configuration not stated), the logP [26] was 3.09.
O=[N+]([O-])c1ncn(CC(O)CN2CC2)n1 (configuration not stated) gave a logD [18] of -0.72.
In the case of CC(=O)c1ccc([N+](=O)[O-])cc1, the logP [27] is reported as 1.61.
Compound O=C(Nc1ccc(O)cc1)C(Cl)Cl has a logP [20] of 1.6.
With OCc1ccccc1O the logP [21] was 0.56.
In the case of COc1ccc(C(=O)O)cc1, the logD [8] is reported as 1.88.
For NC(N)=N/N=C/c1c(Cl)cccc1Cl, the logD [7] was 1.4.
For COc1ccccc1C=O, the logP [4] was 1.72.
With Nc1ccc(-c2n[nH]c(=S)o2)cc1 the logP [28] was 2.03.
Compound CCNC(=O)c1cc(Br)cc(C)c1O has a logD [10] of 3.61.
In the case of CN(O)C(=O)Cn1ccnc1[N+](=O)[O-], the logD [25] is reported as -0.74.
For OCc1c(Cl)cccc1Cl, the logP [13] was 2.02.
For O=[N+]([O-])c1ccc(Oc2ccccc2)cc1, the logP [27] was 3.79.
For CN(C)C(=O)n1cc(F)c(=O)[nH]c1=O, the logD [16] was -0.37.
Cc1cc(Br)cc(C(=O)NC(C)C)c1O showed a logD [10] of 4.19.
Compound CCN(CC)P(=O)(N(C)C)N(C)C has a logP [22] of 0.66.
CC(=O)N(C)c1ccc(O)cc1 gave a logD [9] of 0.61.
O=C(O)CNc1ccc([N+](=O)[O-])cc1[N+](=O)[O-] gave a logD [3] of 1.56.
COc1ccc(-c2n[nH]c(=S)o2)cc1 showed a logP [28] of 3.
Work on Nc1nc(C=Cc2ccc([N+](=O)[O-])o2)no1 yielded a logP [14] of 1.3.
For CCCCC(O)CCC (configuration not stated), the logP [26] was 2.68.
With Nc1nc(NCC(O)CO)c(Cl)nc1[N+](=O)[O-] (configuration not stated) the logD [11] was -0.22.
Work on O=C(O)c1cc([N+](=O)[O-])cc([N+](=O)[O-])c1 yielded a logD [3] of 1.75.
For O=C(O)Cc1ccc(F)cc1, the logP [6] was 1.6.
With c1ccc(N(c2ccccc2)c2ccccc2)cc1 the logP [27] was 5.22.
Compound COP(=S)(OC)Oc1ccccc1 has a logP [24] of 2.97.
In the case of COP(=S)(OC)Oc1cc(Cl)c(I)cc1Cl, the logP [24] is reported as 4.61.
Compound CCCCCCN1CC(C(=O)OC)CC1=O (configuration not stated) has a logP of 2.3.
For CONC(=O)CCCn1ccnc1[N+](=O)[O-], the logD [25] was -0.74.
For S=c1[nH]nc(-c2ccc(Br)cc2)o1, the logP [28] was 3.93.
In the case of CN(C)P(=O)(N(C)C)N(C)C, the logP [22] is reported as 0.09.
